Paper PMC11803614 (2025)

Tests used:
Assay in all cases: electrochemical aptamer-based sensor, square-wave voltammetry titration (KDM)
[1] = system: procaine (DNA, aptamer) AGACAAGGAAAATCCTTCAACGAAGTGGGTCG; conditions: undiluted bovine blood, room temperature and 37 °C; 0% carboxylate SAM; no Kd, upper plateau not reached
[2] = system: vanc-45 (also printed vanc-48) (DNA, aptamer) CGAGGGTACCGCAATAGTACTTATTGTTCGCCTATTGTGGGTCGG; conditions: PBS (ion concentrations not given), room temperature, 0% carboxylate (6-mercaptohexanol) SAM, immobilised aptamer
[3] = system: vanc-28 (DNA, aptamer) GCGAGGGTACCGCTTAAAGTGGGTCGGC; conditions: PBS (ion concentrations not given), room temperature, 0% carboxylate (6-mercaptohexanol) SAM, immobilised aptamer
[4] = system: tryptophan (DNA, aptamer) CCGGTGGTGTAGTTCCGGCGTGGGGAAGG; conditions: PBS (ion concentrations not given), room temperature, 0% carboxylate SAM, immobilised aptamer, biphasic, higher affinity event

CCN(CC)CCOC(=O)c1ccc(N)cc1
binding [1]: yes

CN[C@H](CC(C)C)C(=O)N[C@H]1C(=O)N[C@@H](CC(N)=O)C(=O)N[C@H]2C(=O)N[C@H]3C(=O)N[C@H](C(=O)N[C@H](C(=O)O)c4cc(O)cc(O)c4-c4cc3ccc4O)[C@H](O)c3ccc(c(Cl)c3)Oc3cc2cc(c3O[C@@H]2O[C@H](CO)[C@@H](O)[C@H](O)[C@H]2O[C@H]2C[C@](C)(N)[C@H](O)[C@H](C)O2)Oc2ccc(cc2Cl)[C@H]1O
Kd [2]: 15.2 ± 0.4 µM
Kd [3]: 0.6 ± 0.1 µM

N[C@@H](Cc1c[nH]c2ccccc12)C(=O)O
Kd [4]: 13.0 ± 1.4 µM
